Activity calls are given as the source filed them.
What was measured:
[1] = molecular target: T1, Voltage-gated N-type calcium channel alpha-1B subunit/Amyloid beta A4 precursor protein-binding family A member 1 (Homo sapiens, UniProt Q00975+Q02410); assay type: protein assay
[2] = molecular target: Beta-lactamase (Salmonella choleraesuis (strain SC-B67), UniProt Q5J463)
[3] = molecular target: T2, Bcl-2-related protein A1 (Mus musculus, UniProt Q07440); assay: Bfl-1 inhibitors, primary screen, biochemical, fluorescence polarization, FITC-Bid, mouse (AID 432)
T2 sequence (Q07440 whole entry): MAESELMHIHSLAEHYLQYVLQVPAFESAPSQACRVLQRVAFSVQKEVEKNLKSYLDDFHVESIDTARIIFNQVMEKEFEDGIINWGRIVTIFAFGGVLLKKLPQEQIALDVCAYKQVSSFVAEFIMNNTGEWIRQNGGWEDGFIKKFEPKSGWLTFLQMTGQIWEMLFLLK

[4] = molecular target: Beta-lactamase (Pseudomonas aeruginosa, UniProt Q79MP6);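 further: biochemical dose-response test of metallo-beta-lactamase enzyme inhibition, read out by epi-absorbance; purified recombinant IMP-1 metallo-beta-lactamase with nitrocefin as substrate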
[5] = molecular target: Dual specificity protein phosphatase 6 (Rattus norvegicus, UniProt Q64346); assay: MKP-3 phosphatase inhibitors, primary screen, biochemical, rat enzyme, in vitro (AID 425)
[6] = molecular target: Mitogen-activated protein kinase 10 (Homo sapiens, UniProt P53779); assay: Dose response biochemical screening assay for inhibitors of c-Jun N-Terminal Kinase 3 (JNK3). [Related pubchem assays: 746 ]
[7] = molecular target: T2, Bcl-2-related protein A1; assay: Bfl-1 inhibitors blocking BH3 peptide binding, confirmation, biochemical, TR-FRET, mouse Bfl-1 (AID 621);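 further: TR-FRET binding of GST-Bfl-1 to FITC-labelled Bid peptide via terbium antibody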
[8] = molecular target: T1, Voltage-gated N-type calcium channel alpha-1B subunit/Amyloid beta A4 precursor protein-binding family A member 1; assay type: protein assay; remark: listed apart in the source
[9] = molecular target: Procathepsin L (Homo sapiens, UniProt P07711); assay: cathepsin L inhibitors, dose response, counter-screen for M1/M17 aminopeptidase inhibitor project, biochemical, QFRET, 1536-well (AID 2214)
[10] = molecular target: T3, Leucine aminopeptidase (Plasmodium falciparum 3D7, UniProt Q8IL11); assay: P. falciparum M17LAP inhibitors, primary screen, biochemical, fluorogenic H-Leu-NHMec substrate, 1536-well (AID 1619); assay type: functional
T3 sequence (Q8IL11 whole entry): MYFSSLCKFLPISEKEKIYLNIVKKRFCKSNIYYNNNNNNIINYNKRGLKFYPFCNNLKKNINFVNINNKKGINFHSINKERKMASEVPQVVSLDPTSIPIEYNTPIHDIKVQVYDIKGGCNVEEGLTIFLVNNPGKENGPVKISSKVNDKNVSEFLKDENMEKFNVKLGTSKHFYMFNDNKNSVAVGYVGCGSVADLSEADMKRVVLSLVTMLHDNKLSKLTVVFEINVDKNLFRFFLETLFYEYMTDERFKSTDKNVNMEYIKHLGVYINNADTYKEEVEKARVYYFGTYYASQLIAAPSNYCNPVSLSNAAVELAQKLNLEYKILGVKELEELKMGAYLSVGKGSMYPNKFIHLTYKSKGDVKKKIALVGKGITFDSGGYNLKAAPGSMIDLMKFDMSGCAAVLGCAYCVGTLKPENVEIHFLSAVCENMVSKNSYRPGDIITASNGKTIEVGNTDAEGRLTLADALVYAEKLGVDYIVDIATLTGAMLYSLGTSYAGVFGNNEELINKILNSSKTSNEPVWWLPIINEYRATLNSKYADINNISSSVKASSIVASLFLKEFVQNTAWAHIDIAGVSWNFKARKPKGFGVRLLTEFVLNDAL

[11] = molecular target: Aspartyl aminopeptidase (Plasmodium falciparum 3D7, UniProt Q8I2J3); assay: Counterscreen for inhibitors of M1 and M17 aminopeptidases: QFRET-based biochemical high throughput dose response assay for inhibitors of the Plasmodium falciparum M18 Aspartyl Aminopeptidase (PFM18AAP). [Related PubChem assays: 1619 (Screening assay (M17LAP inhibitors).), 1445 (Screening assay (M1AAP inhibitors).)]
[12] = system: BJ; assay: cytotoxicity toward BJ-TERT fibroblasts, dose response, cell-based, RAS-independent, luminescence (AID 1933); assay type: functional; details: Homo sapiens
[13] = molecular target: Luciferin 4-monooxygenase (Photinus pyralis, UniProt P08659); assay: Counter Screen for Luciferase-based Assay Positives. [Related pubchem assays: 620, 618, 411 ]
[14] = Luminescence-based dose response cell-based high throughput screening assay for cytotoxic compounds using the IEC-6 intestinal epithelial cell line. [Related pubchem assays: 1858 (Summary AID.), 1825 (Counterscreen.), 1907 (Confirmation screen.)]; assay type: functional
[15] = system: BJ; assay: cells; assay type: functional, cell-based; details: Homo sapiens
[16] = system: HEK293; assay: NOD1 signaling inhibitors, primary screen, cell-based, luminescence, uHTS (AID 1578); assay type: functional; details: Homo sapiens
[17] = inhibitors of firefly luciferase expression or activity, dose response, H4 neuroglioma cells, luminescence (AID 1990); assay type: functional, cell-based
[18] = system: BJ; assay: cytotoxicity toward BJ-TERT-LT-ST fibroblasts, dose response, cell-based, RAS-independent, luminescence (AID 1935); assay type: functional; details: Homo sapiens;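 further: BJ fibroblasts immortalized with TERT plus LT and ST oncogenes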
[19] = system: HEK293; assay: cells; assay type: functional, cell-based; details: Homo sapiens
[20] = cytotoxicity toward DRD oncogenic fibroblasts, dose response, cell-based, non-viral oncogenic, luminescence (AID 1934); assay type: functional; details: Homo sapiens
[21] = system: HEK293; assay: NOD2 signaling inhibitors in MDP-stimulated cells, cell-based, uHTS, luminescence (AID 2001); assay type: functional; details: Homo sapiens
[22] = system: HEK293; assay: cells; assay type: functional, cell-based; details: Homo sapiens; remark: listed apart in the source
[23] = system: HT-1080; assay: cytotoxicity in HT1080 fibrosarcoma cells, cell-based, fluorescence readout (AID 620); assay type: functional; details: Homo sapiens
[24] = molecular target: T4, Lysine-specific demethylase 4C (Homo sapiens, UniProt Q9H3R0); assay: GASC-1 (JMJD2C) histone demethylase inhibitors, dose response, biochemical, DELFIA europium, cherry-picked samples (AID 488835); assay type: functional
T4 sequence (Q9H3R0 whole entry): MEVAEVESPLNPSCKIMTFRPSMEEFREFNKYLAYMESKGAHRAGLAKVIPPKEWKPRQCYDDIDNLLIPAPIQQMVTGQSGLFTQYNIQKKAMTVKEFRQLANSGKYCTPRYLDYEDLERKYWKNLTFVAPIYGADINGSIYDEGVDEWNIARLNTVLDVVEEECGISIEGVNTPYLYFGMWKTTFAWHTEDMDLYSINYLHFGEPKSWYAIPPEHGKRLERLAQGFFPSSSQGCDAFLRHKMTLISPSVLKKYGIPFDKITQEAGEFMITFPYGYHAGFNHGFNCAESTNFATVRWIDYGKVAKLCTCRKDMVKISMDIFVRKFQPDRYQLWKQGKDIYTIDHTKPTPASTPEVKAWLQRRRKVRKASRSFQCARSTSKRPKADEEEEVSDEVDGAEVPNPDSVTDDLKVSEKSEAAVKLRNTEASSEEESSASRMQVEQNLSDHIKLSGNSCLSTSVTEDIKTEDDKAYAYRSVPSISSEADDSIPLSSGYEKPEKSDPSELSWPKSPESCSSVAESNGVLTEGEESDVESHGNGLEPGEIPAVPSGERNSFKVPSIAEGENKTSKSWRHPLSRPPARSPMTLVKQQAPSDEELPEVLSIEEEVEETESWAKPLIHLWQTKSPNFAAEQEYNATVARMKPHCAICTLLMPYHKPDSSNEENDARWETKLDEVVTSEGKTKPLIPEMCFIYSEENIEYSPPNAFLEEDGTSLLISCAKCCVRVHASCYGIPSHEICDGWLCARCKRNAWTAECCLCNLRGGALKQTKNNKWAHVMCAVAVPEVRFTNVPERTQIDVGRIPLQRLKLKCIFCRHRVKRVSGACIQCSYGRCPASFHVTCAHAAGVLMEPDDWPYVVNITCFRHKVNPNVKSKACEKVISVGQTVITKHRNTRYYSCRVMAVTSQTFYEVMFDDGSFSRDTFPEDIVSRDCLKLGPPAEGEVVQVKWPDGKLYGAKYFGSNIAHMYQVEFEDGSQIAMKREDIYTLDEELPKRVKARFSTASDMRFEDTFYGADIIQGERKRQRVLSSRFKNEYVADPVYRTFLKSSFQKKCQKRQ

[25] = molecular target: Eukaryotic translation initiation factor 4E (Mus musculus, UniProt P63073); assay: eIF4E–eIF4G protein interaction inhibitors, dose response, biochemical, TR-FRET (AID 855); assay type: functional;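 further: potency for disrupting eIF4E binding to eIF4GI seen as loss of FRET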
[26] = molecular target: DNA dC->dU-editing enzyme APOBEC-3G (Homo sapiens, UniProt Q9HC16); assay: Dose Response confirmation of small molecule APOBEC3G DNA Deaminase Inhibitors via a fluorescence-based single-stranded DNA deaminase assay. [Related pubchem assays (depositor defined):AID493012, AID493028]; assay type: functional
[27] = molecular target: T5, Mannose-6-phosphate isomerase (Homo sapiens, UniProt P34949); assay: inhibitors of human PMI, primary screen, biochemical, fluorescence intensity, coupled assay (AID 1209)
T5 sequence (P34949 whole entry): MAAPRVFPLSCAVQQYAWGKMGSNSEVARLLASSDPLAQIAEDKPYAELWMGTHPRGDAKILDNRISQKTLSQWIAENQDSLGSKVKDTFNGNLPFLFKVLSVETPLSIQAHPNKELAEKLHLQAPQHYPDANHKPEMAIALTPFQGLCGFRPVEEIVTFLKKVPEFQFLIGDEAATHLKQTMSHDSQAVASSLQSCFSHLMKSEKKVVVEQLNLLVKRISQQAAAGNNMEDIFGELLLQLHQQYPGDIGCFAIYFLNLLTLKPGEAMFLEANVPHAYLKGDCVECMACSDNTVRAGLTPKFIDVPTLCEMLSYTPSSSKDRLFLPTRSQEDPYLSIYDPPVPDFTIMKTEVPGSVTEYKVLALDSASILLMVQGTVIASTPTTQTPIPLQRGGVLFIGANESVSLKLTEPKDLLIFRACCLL

[28] = molecular target: T5, Mannose-6-phosphate isomerase; assay: human PMI inhibitors, high substrate, primary screen, biochemical, fluorescence intensity, high mannose 6-phosphate (AID 1220)
[29] = molecular target: Protein Wnt-3a (Mus musculus, UniProt P27467); assay: Wnt3a-driven reporter signaling inhibition, dose response, selectivity assay for Gli-SUFU antagonist project, Wnt-LIGHT cells, luminescence (AID 651570); assay type: functional; details: read-out: IC50_Mean;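 further: Wnt-LIGHT reporter cells stimulated with conditioned medium from Wnt3a-producing cells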
[30] = molecular target: ATP-dependent molecular chaperone HSP82 (Candida albicans (strain WO-1) (Yeast), UniProt C4YTQ8); assay: loss of DOC-induced GRE-beta-galactosidase reporter signal, dose response, Hsp90 inhibitor project, S. cerevisiae, luminescence (AID 2400); assay type: functional, cell-based;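 further: beta-galactosidase luminescence from glucocorticoid response element reporter as proxy for Hsp90 function; inhibitor potency where signal loss means Hsp90 inhibition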
[31] = molecular target: T6, Serine/threonine-protein phosphatase (Candida dubliniensis (strain CD36 / CBS 7987 / NCPF 3949 / NRRLY-17841) (Yeast), UniProt B9W6M3); assay: calcineurin pathway inhibitors in yeast reporter, dose response, S. cerevisiae, CDRE-lacZ, luminescence, secondary (AID 2388); assay type: functional, cell-based;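 further: yeast reporter cells carrying a calcineurin-responsive lacZ construct stimulated with calcium chloride; luminescent beta-galactosidase reporter signal in whole cells rather than isolated phosphatase activity; potency for inhibition where a drop in reporter signal means calcineurin blockade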
T6 sequence (B9W6M3 whole entry): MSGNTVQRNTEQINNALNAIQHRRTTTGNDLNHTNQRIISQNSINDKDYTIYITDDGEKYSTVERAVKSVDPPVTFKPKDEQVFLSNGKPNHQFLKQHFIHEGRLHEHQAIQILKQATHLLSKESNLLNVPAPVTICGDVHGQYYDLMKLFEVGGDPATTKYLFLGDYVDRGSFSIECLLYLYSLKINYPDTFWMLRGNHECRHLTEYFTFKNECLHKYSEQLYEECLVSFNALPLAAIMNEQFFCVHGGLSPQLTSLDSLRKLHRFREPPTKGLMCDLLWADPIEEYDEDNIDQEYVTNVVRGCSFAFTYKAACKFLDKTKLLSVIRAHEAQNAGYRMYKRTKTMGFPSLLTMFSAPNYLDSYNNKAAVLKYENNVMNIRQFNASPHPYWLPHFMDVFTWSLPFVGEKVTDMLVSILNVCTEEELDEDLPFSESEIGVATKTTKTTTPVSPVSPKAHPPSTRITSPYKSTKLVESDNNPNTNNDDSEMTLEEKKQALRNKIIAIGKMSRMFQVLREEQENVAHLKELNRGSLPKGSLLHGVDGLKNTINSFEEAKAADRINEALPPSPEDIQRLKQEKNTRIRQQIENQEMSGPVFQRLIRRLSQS

[32] = system: INS1; assay: beta cell apoptosis inhibitors, cytokine rescue, dose response, luminescence, retest (AID 449756); assay type: functional, cell-based; details: Rattus norvegicus;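 further: cell death triggered by IL-1 beta plus TNF-alpha plus IFN-gamma mixture; protective hits raise ATP signal compared with cytokine alone wells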
[33] = C. albicans growth with fluconazole, confirmation, fluorescence, retest (AID 2467); assay type: functional, cell-based
[34] = NIH-3T3 fibroblast cytotoxicity, dose response, cytotoxicity control, cell-based, fluorescence, Alamar Blue, secondary assay (AID 2327); assay type: functional;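 further: NIH-3T3 mouse fibroblasts cultured with fluconazole at 8 µg/mL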
[35] = molecular target: Galanin receptor type 2 (Homo sapiens, UniProt O43603); assay: Dose Response cell-based high-throughput screening assay to identify antagonists of galanin receptor 2 (GALR2). [Related pubchem assays: 828, 866 ]; assay type: functional

T1 sequence (Q00975 whole entry): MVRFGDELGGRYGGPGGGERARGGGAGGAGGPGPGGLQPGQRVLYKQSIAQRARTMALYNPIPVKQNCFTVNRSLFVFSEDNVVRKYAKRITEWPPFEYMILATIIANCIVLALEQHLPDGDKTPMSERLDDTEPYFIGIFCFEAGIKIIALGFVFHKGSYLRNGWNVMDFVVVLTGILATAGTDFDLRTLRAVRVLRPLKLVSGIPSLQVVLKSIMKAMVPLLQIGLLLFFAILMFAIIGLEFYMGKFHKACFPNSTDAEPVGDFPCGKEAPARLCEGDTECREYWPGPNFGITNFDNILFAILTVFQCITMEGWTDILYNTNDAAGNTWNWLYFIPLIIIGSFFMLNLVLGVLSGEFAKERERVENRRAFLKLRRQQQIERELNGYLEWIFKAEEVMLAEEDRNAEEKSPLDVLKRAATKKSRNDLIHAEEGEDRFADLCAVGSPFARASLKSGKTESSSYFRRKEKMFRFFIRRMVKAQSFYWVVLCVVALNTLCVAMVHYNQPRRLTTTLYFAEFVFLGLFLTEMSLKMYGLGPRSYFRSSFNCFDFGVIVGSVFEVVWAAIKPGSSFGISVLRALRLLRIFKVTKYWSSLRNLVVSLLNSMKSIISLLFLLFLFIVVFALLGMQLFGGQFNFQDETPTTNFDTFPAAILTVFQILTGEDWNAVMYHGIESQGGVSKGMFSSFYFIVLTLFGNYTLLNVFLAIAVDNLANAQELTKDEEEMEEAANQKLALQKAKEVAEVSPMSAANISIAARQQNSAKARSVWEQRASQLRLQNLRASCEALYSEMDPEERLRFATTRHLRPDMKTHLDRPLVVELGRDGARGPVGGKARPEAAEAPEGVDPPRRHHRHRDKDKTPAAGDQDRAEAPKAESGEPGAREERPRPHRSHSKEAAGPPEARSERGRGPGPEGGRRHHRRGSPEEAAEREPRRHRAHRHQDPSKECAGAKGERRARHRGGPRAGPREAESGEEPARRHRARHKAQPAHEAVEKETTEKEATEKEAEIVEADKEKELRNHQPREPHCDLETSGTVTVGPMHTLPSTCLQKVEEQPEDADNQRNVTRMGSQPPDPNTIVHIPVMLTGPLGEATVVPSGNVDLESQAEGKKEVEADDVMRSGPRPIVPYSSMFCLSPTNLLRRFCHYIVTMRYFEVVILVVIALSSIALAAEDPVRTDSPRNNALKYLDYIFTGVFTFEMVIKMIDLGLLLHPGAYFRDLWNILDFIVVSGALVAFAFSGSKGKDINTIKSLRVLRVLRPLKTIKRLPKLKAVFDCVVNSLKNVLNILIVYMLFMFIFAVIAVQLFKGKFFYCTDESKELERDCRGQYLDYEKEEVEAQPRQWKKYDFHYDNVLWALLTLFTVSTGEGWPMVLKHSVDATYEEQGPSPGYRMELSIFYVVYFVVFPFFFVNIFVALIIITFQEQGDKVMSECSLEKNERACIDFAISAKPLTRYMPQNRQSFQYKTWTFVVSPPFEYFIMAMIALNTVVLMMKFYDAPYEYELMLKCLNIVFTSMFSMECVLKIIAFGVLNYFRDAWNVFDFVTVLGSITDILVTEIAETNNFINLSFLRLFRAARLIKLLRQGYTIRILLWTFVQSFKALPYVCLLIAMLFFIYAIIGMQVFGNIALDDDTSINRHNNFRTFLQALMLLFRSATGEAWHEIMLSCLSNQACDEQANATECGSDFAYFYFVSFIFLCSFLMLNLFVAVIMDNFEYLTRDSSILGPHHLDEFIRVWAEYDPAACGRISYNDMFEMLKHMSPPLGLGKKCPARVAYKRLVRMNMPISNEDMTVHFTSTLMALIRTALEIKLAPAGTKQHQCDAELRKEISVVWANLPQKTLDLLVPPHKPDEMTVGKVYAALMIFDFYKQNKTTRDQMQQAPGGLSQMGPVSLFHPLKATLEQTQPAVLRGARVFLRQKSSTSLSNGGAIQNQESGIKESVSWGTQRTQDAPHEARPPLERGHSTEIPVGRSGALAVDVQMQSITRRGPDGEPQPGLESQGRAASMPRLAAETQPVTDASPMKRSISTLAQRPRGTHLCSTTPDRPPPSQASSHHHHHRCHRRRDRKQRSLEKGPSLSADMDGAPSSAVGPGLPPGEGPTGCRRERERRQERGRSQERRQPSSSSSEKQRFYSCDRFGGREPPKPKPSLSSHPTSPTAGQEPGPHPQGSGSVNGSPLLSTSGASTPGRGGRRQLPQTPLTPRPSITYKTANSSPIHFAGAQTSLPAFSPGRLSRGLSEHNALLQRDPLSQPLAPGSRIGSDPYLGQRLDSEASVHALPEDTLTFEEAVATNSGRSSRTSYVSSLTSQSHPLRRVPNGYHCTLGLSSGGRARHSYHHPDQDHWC
T1 sequence (Q02410 whole entry): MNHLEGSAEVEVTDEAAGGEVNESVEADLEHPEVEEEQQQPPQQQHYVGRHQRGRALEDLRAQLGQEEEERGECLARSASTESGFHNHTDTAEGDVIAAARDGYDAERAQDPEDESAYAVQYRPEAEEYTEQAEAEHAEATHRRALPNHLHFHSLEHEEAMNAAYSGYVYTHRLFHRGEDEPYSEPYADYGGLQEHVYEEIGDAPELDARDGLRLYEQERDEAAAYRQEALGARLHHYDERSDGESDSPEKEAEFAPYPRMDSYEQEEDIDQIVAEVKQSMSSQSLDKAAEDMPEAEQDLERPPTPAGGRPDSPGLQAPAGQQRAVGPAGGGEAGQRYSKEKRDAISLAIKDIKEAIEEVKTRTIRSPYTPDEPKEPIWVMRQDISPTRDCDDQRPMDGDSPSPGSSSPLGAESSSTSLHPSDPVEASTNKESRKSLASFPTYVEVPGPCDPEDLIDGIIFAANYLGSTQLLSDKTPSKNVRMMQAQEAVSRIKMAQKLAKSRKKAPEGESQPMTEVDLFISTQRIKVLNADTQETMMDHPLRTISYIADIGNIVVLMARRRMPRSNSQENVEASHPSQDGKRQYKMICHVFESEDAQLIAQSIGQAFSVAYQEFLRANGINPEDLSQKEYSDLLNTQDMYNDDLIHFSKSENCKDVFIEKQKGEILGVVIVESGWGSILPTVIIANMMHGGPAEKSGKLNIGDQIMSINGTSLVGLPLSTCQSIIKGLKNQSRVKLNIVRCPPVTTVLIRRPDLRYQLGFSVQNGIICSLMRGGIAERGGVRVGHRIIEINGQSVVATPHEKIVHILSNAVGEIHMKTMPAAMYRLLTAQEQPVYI
DNA dC->dU-editing enzyme APOBEC-3G, sequence (Q9HC16 whole entry): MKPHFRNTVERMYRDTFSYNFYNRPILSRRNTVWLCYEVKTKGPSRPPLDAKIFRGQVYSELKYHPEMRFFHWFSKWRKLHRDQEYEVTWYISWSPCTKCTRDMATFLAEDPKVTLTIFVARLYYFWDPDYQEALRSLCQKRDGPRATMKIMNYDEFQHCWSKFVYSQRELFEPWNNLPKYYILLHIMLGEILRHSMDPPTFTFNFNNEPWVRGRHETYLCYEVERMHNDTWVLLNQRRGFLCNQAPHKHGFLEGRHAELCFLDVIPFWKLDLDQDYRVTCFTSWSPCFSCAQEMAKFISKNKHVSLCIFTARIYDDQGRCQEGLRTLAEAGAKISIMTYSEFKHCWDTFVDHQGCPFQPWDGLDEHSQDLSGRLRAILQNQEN
Eukaryotic translation initiation factor 4E, sequence (P63073 whole entry): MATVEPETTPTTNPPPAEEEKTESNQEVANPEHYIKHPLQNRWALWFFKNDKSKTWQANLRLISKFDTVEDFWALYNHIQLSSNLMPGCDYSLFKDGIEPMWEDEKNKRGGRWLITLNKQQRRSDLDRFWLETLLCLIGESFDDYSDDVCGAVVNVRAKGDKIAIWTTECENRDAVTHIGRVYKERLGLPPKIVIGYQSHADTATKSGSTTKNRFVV
Mitogen-activated protein kinase 10, sequence (P53779 whole entry): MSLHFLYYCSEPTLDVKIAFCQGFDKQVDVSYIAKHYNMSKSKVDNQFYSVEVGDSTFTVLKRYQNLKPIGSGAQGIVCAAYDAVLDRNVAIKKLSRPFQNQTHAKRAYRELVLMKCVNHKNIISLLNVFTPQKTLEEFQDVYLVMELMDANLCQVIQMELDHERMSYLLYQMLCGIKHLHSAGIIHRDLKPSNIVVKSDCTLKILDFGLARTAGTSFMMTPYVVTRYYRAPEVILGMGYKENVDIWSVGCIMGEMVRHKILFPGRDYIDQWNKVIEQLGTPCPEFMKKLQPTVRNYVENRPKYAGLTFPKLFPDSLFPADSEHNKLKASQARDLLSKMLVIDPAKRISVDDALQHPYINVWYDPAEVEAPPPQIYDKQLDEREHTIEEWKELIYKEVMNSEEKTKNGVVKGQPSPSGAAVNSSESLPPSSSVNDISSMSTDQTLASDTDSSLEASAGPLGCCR
Aspartyl aminopeptidase, sequence (Q8I2J3 whole entry): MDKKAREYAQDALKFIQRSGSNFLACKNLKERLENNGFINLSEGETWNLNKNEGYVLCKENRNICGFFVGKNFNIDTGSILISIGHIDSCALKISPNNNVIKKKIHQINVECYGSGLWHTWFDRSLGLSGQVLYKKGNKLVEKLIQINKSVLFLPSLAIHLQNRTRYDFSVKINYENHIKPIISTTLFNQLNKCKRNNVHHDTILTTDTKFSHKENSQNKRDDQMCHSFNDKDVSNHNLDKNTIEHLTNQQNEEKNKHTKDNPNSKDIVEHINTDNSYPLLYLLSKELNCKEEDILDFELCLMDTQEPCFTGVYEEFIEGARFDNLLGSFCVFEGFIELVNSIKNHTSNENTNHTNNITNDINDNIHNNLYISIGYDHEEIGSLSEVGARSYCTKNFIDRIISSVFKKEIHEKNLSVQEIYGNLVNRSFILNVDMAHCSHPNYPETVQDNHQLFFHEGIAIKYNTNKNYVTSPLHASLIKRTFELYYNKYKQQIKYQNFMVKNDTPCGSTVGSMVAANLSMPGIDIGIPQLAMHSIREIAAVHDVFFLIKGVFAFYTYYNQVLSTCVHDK
Beta-lactamase (Pseudomonas aeruginosa, UniProt Q79MP6), sequence (Q79MP6 whole entry): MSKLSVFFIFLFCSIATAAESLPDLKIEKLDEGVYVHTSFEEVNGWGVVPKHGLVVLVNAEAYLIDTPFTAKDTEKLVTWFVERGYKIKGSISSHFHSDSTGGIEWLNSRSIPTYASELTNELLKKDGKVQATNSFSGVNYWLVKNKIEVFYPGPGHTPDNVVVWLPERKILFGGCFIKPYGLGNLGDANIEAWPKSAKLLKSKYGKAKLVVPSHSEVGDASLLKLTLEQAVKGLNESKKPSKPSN

O=C1c2ccccc2-c2onc3ccc(NCCCn4ccnc4)c1c23
IC50 [1]: > 50 µM (inactive)
IC50 [2]: 3.02 µM (active)
IC50 [3]: > 100 µM (not active)
IC50 [4]: 5.38 µM (active)
IC50 [5]: 1.19 µM (active)
IC50 [6]: 22.2 µM (not active)
IC50 [7]: > 100 µM (not active)
IC50 [8]: 3.18 µM (active)

COc1cc(NC(=O)CSc2nc3ccccc3cc2C)c(C(=O)O)cc1OC
IC50 [9]: > 59.6 µM (not active)
IC50 [10]: 1.57 µM (active)
IC50 [11]: > 73.5 µM (not active)

COc1cccc(Cn2c(NCc3cccnc3)nc3c2c(=O)n(C)c(=O)n3C)c1
EC50 [12]: > 150 µM (not active)
EC50 [13]: 39.5 µM (active)
IC50 [14]: 0.425 µM (active)
EC50 [15]: 4.58 µM (inconclusive)
EC50 [16]: > 20 µM (inactive)
EC50 [17]: 12 µM (active)
EC50 [18]: > 150 µM (inconclusive)
IC50 [19]: > 20 µM (inactive)
EC50 [20]: 5.5 µM (active)
IC50 [21]: 14.6 µM (inactive)
IC50 [22]: > 20 µM (inactive)
EC50 [23]: > 50 µM (not active)

COc1ccc(/N=c2\ssnc2Cl)cc1
AC50 [24]: 39.1 µM (active)
IC50 [25]: 43.2 µM (inactive)
IC50 [26]: 9.96 µM (active)
IC50 [27]: 14.4 µM (active)
IC50 [28]: 21.6 µM (active)

c1ccc2c(c1)OCC(CNc1ncnc3sccc13)O2 (stereo not given)
IC50 [29]: 1.83 µM (active)
EC50 [30]: > 150 µM (inactive)
EC50 [31]: > 180 µM (inactive)
AC50 [32]: 0.941 µM (active)
EC50 [33]: 0.27 µM (active)
EC50 [34]: > 150 µM (inactive)
IC50 [35]: > 42 µM (not active)

From ChEMBL document CHEMBL1201862, “PubChem BioAssay data set” (2004)
